{"source": "ChEMBL document CHEMBL1201862", "about": "“PubChem BioAssay data set” (2004)", "key": {"[1]": {"target": "T1, Mitochondrial peptide methionine sulfoxide reductase (Bos taurus, UniProt P54149)", "T1 sequence (P54149 whole entry)": "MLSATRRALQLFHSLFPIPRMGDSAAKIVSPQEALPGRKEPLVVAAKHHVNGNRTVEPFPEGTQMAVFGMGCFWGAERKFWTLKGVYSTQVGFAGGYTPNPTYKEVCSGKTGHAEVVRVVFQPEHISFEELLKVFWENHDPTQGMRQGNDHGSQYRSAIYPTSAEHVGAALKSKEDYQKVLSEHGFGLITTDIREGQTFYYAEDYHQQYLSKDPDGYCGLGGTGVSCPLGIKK", "assay": "Absorbance-based biochemical high throughput dose response assay for activators of Methionine sulfoxide reductase A (MsrA).", "assay_type": "functional"}, "[2]": {"target": "Histone-lysine N-methyltransferase NSD2 (Homo sapiens, UniProt O96028)", "sequence (O96028 whole entry)": "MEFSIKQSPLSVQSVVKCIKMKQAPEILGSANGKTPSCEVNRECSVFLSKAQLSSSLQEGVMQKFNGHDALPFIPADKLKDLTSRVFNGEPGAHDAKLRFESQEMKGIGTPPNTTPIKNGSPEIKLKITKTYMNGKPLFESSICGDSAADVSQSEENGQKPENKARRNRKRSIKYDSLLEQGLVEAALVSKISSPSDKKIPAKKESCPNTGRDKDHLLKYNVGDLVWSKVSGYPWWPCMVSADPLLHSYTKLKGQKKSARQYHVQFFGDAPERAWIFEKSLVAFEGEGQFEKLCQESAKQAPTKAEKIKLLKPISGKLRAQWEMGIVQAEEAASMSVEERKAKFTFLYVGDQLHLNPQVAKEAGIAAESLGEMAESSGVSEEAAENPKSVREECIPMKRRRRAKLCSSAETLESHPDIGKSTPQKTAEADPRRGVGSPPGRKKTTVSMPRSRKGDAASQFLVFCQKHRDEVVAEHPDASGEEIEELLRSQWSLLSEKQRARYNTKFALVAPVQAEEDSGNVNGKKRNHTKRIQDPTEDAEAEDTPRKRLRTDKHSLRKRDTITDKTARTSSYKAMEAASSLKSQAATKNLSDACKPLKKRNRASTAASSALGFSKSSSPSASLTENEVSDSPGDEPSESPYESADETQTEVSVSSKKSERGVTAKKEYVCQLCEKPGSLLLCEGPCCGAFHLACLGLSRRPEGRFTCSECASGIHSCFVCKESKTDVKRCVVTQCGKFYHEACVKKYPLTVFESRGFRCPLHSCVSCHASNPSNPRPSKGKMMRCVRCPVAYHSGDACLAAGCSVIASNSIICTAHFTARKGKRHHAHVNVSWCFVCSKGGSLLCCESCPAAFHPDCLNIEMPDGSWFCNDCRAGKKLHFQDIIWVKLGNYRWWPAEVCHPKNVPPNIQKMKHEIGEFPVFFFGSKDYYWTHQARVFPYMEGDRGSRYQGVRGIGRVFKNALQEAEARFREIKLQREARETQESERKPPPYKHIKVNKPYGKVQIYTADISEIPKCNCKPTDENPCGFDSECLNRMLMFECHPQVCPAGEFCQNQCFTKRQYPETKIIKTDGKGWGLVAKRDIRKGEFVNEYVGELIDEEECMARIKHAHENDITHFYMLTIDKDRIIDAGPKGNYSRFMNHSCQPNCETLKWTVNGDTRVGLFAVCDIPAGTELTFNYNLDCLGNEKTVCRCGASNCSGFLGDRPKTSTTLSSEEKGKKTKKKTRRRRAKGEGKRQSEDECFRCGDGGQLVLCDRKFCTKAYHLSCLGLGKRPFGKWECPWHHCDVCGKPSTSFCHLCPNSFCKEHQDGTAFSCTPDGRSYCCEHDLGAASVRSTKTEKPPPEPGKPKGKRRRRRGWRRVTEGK", "assay_type": "biochemical"}, "[3]": {"target": "T2, Sentrin-specific protease 8 (Homo sapiens, UniProt Q96LD8)", "T2 sequence (Q96LD8 whole entry)": "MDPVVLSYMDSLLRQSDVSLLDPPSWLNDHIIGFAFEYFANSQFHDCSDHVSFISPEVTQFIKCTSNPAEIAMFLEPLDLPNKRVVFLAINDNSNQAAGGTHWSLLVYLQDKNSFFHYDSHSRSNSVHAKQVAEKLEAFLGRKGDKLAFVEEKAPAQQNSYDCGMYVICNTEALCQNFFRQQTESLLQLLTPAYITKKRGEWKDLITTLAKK", "assay_type": "functional"}, "[4]": {"target": "T1, Mitochondrial peptide methionine sulfoxide reductase", "assay_type": "functional"}, "[5]": {"target": "T2, Sentrin-specific protease 8", "assay_type": "functional", "remark": "listed apart in the source"}, "[6]": {"target": "Cyclin-dependent kinase 7 (Homo sapiens, UniProt P50613)", "sequence (P50613 whole entry)": "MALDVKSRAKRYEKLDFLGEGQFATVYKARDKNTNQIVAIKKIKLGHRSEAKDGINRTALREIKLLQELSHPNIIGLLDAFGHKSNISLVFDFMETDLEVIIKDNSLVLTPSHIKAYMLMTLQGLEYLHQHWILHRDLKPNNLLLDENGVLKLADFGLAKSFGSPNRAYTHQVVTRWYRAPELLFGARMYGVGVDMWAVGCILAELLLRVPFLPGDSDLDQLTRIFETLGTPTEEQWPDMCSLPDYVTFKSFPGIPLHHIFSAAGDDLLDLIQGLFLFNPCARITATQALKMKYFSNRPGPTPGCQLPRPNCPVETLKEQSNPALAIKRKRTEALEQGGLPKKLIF", "assay_type": "functional"}, "[7]": {"target": "Cyclin-dependent kinase 8 (Homo sapiens, UniProt P49336)", "sequence (P49336 whole entry)": "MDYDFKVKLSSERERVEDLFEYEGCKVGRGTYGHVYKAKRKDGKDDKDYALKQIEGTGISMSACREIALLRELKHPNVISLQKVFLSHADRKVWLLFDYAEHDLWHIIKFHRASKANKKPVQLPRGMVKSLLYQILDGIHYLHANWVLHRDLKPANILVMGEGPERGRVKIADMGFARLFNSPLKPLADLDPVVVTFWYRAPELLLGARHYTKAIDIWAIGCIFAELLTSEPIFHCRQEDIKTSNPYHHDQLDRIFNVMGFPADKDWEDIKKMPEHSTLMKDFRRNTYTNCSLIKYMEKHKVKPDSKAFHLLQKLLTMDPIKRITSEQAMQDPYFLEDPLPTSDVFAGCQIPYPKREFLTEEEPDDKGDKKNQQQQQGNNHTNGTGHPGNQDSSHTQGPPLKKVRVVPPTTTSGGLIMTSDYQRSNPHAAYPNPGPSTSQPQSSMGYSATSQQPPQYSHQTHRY", "assay": "Navigating the Kinome. Panel member name: CDK8", "assay_type": "functional"}, "[8]": {"target": "Cyclin-dependent kinase 9 (Homo sapiens, UniProt P50750)", "sequence (P50750 whole entry)": "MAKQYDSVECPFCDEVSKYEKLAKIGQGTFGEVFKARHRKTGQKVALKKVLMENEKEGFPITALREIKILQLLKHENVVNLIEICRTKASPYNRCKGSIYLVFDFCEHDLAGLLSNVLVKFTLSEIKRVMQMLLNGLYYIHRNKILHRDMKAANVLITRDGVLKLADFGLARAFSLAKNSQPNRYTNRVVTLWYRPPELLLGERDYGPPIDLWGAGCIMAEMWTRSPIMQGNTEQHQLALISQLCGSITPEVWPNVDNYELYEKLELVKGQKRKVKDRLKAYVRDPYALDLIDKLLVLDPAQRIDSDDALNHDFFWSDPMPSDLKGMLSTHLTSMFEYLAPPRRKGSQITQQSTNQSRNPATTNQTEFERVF", "assay_type": "functional"}, "[9]": {"target": "ATP-dependent molecular chaperone HSP82 (Candida albicans (strain WO-1) (Yeast), UniProt C4YTQ8)", "assay": "steroid-induced GRE reporter decrease in yeast – S. cerevisiae, luminescence, Hsp90 inhibitor project, dose response (AID 2400);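 further: beta-galactosidase luminescence from glucocorticoid response element reporter as proxy for Hsp90 function; inhibitor potency where signal loss means Hsp90 inhibition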", "assay_type": "functional, cell-based"}, "[10]": {"assay": "Luminescence Cell-Based Dose Confirmation HTS to Identify Activators of 5'UTR Stem-Loop Driven Alpha-Synuclein mRNA Translation in H4 Neuroglioblastoma Cells. [Related pubchem assays: 1829 (Project Summary), 1814 (Primary HTS)]", "assay_type": "functional"}, "[11]": {"assay": "Luminescence Cell-Based Dose Confirmation to Identify Activators of 5'UTR Stem-Loop Driven Alpha-Synuclein mRNA Translation in H4 Neuroglioblastoma Cells. [Related pubchem assays: 1829 (Project Summary), 1814 (Primary HTS)]", "assay_type": "functional"}, "H4": {"tested_on": "H4", "assay": "Luminescence Cell-Based Dose Response HTS to Identify Activators of 5'UTR Stem-Loop Driven Prion Protein mRNA Translation in H4 Neuroglioblastoma Cells. [Related pubchem assays: 1829 (Project Summary), 1814 (Primary HTS)]", "assay_type": "functional", "conditions": "Homo sapiens"}, "[12]": {"assay": "NIH-3T3 fibroblast cytotoxicity, dose response, cytotoxicity control, cell-based, fluorescence, Alamar Blue, secondary assay (AID 2327);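 further: NIH-3T3 mouse fibroblasts cultured with fluconazole at 8 µg/mL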", "assay_type": "functional"}, "[13]": {"assay": "Luminescence Cell-Based Dose Response HTS to Identify Activators of Luciferase Translation or Activity in H4 […] Cells. [Related pubchem assays: 1829 (Project Summary), 1814 (Primary HTS)]", "assay_type": "functional"}, "[14]": {"assay": "fluconazole-exposed Candida albicans growth modulators – fluorescence, retest, confirmation (AID 2467)", "assay_type": "functional, cell-based"}, "[15]": {"target": "Serine/threonine-protein phosphatase (Candida dubliniensis (strain CD36 / CBS 7987 / NCPF 3949 / NRRLY-17841) (Yeast), UniProt B9W6M3)", "assay": "blockers of CaCl2-induced CDRE-lacZ signaling – S. cerevisiae, luminescence, secondary, dose response (AID 2388);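 further: yeast reporter cells carrying a calcineurin-responsive lacZ construct stimulated with calcium chloride; luminescent beta-galactosidase reporter signal in whole cells rather than isolated phosphatase activity; potency for inhibition where a drop in reporter signal means calcineurin blockade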", "assay_type": "functional, cell-based"}, "[16]": {"assay": "Luminescence Cell-Based Dose Response to Identify Activators of 5'UTR Stem-Loop Driven Prion Protein mRNA Translation in H4-C Neuroglioblastoma Cells. [Related pubchem assays: 1829 (Project Summary), 1814 (Primary HTS)]", "assay_type": "functional"}, "[17]": {"assay": "Luminescence Cell-Based Dose Response to Identify Activators of Luciferase Translation or Activity in H4-C Neuroglioblastoma Cells. [Related pubchem assays: 1829 (Project Summary), 1814 (Primary HTS)]", "assay_type": "functional"}, "[18]": {"target": "Dual specificity protein kinase CLK1 (Homo sapiens, UniProt P49759)", "sequence (P49759 whole entry)": "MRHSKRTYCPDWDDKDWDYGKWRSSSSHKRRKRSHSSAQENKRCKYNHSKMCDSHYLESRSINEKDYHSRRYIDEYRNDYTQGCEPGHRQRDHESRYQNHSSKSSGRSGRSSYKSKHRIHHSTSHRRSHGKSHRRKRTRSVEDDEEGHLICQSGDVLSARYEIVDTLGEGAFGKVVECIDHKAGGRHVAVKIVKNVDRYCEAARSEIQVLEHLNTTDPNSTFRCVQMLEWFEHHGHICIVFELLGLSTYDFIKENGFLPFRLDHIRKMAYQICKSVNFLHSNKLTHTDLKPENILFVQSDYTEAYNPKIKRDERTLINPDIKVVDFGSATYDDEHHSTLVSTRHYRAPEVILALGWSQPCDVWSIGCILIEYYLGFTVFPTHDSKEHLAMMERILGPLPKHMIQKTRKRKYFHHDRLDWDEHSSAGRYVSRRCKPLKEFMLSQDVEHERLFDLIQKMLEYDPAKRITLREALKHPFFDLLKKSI", "assay": "inhibition of human CLK1 activity – biochemical, cherry-picked samples, selectivity assay for Dyrk1A inhibitor project, dose response (AID 588811)"}, "Interleukin-8": {"target": "Interleukin-8 (Homo sapiens, UniProt P10145)", "sequence (P10145 whole entry)": "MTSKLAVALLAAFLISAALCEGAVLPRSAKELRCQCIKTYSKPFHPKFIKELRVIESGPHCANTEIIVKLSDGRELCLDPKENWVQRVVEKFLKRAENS", "assay": "Dose Response confirmation of uHTS small molecule hits for cystic fibrosis induced NFkb Inhibitors in a PAF-induced IL8 counterscreen.", "assay_type": "functional", "conditions": "read-out: IC50_Mean"}, "[19]": {"target": "T3, ATP-dependent translocase ABCB1 (Homo sapiens, UniProt P08183)", "T3 sequence (P08183 whole entry)": "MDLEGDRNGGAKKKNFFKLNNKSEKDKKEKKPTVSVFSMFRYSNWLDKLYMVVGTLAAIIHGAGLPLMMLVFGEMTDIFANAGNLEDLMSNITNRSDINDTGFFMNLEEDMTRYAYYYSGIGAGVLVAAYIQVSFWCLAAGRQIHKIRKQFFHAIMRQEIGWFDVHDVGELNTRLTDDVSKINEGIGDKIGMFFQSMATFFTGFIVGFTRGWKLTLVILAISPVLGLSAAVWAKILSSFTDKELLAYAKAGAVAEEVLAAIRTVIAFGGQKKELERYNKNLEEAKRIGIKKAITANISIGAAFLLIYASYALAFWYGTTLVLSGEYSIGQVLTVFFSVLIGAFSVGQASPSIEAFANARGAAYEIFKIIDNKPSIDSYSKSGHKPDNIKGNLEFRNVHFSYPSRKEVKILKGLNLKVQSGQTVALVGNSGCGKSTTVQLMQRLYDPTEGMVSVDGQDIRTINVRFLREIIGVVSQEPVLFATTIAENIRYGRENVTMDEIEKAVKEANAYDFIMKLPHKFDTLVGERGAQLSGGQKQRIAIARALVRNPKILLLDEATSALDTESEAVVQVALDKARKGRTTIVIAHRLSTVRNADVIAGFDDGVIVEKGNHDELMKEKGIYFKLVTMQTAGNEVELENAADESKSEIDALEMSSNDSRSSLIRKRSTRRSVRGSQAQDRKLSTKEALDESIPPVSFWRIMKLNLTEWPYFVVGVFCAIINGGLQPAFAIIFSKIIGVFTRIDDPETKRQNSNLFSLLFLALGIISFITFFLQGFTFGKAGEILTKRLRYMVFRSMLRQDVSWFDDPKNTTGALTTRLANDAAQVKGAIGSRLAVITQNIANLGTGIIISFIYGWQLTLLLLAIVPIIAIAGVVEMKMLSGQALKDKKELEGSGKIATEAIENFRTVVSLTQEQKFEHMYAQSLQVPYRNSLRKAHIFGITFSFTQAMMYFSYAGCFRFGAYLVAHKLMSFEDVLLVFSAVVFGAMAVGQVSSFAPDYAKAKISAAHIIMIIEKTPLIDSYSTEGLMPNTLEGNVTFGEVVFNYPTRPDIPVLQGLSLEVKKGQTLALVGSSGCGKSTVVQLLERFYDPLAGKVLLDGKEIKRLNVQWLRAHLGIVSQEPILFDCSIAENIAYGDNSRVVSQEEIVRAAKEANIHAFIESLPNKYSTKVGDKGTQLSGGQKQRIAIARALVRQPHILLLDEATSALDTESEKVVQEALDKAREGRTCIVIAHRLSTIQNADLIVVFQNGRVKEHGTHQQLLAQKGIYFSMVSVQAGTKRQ", "assay": "inhibition of BCRP-mediated JC-1 efflux – Ig-MXP3 cells, flow cytometry, set 2, dose response (AID 504566);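 further: flow cytometry median green fluorescence of retained JC-1 dye; potency of efflux pump inhibition measured as rising substrate retention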", "assay_type": "functional", "conditions": "read-out: EC50_MICROM_"}, "[20]": {"target": "T3, ATP-dependent translocase ABCB1", "assay": "P-gp JC-1 efflux blockade concentration-response – Jurkat-DNR cells, flow cytometry, set 2, dose response (AID 504569);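 further: potency of pump inhibitors that raise cellular JC-1 green fluorescence up to the nicardipine level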", "assay_type": "functional", "conditions": "read-out: EC50_MICROM_"}, "[21]": {"target": "Mitogen-activated protein kinase 13 (Homo sapiens, UniProt O15264)", "sequence (O15264 whole entry)": "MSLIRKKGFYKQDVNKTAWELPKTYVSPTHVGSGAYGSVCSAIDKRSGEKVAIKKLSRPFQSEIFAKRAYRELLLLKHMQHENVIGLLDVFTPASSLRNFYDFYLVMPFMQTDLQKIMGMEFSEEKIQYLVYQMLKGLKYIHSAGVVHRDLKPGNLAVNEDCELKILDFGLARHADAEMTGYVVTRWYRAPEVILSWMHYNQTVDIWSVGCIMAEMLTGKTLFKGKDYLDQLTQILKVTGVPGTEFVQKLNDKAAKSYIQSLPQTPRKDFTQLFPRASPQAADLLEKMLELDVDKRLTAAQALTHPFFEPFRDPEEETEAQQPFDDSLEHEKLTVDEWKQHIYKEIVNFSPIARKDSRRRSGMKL", "assay_type": "functional"}}, "note": "Active and inactive are the calls of the source."}
{"smiles": "O=[N+]([O-])c1ccc(-[n+]2nc(-c3ccccc3)nn2-c2ccccc2)cc1", "values": [{"measurement": "EC50", "setting": "[1]", "result": "> 104 µM (inactive)"}, {"measurement": "AC50", "setting": "[2]", "result": "0.654 µM (active)"}, {"measurement": "IC50", "setting": "[3]", "result": "23.7 µM (active)"}, {"measurement": "IC50", "setting": "[4]", "result": "35.9 µM (inactive)"}, {"measurement": "IC50", "setting": "[5]", "result": "5.48 µM (active)"}]}
{"smiles": "OCC1OC(n2cnc3cc(Cl)c(Cl)cc32)C(O)C1O", "note": "(centres undefined)", "values": [{"measurement": "Ki", "setting": "[6]", "result": "2.51 µM (active)"}, {"measurement": "Ki", "setting": "[7]", "result": "2 µM (active)"}, {"measurement": "Ki", "setting": "[8]", "result": "0.126 µM (active)"}]}
{"smiles": "Clc1ccc(CONc2ncnc3nonc23)c(Cl)c1", "values": [{"measurement": "EC50", "setting": "[9]", "result": "19.4 µM (active)"}, {"measurement": "EC50", "setting": "[10]", "result": "22.4 µM (active)"}, {"measurement": "EC50", "setting": "[11]", "result": "> 12 µM (not active)"}, {"measurement": "EC50", "setting": "H4", "result": "52.6 µM (active)"}, {"measurement": "EC50", "setting": "[12]", "result": "> 160 µM (inactive)"}, {"measurement": "EC50", "setting": "[13]", "result": "< 0.1 µM (inconclusive)"}, {"measurement": "EC50", "setting": "[14]", "result": "1.26 µM (active)"}, {"measurement": "EC50", "setting": "[15]", "result": "> 180 µM (inactive)"}, {"measurement": "EC50", "setting": "[16]", "result": "1.14 µM (active)"}, {"measurement": "EC50", "setting": "[17]", "result": "0.516 µM (active)"}]}
{"smiles": "c1cncc(-c2nc(NCc3ccco3)c3ccccc3n2)c1", "values": [{"measurement": "AC50", "setting": "[18]", "result": "17.9 µM (active)"}]}
{"smiles": "c1ccc2c(-c3cncc4ccccc34)cncc2c1", "values": [{"measurement": "IC50", "setting": "Interleukin-8", "result": "16 µM (inactive)"}]}
{"smiles": "Clc1ccc(Nc2nccc(-c3ccc4c(c3)OCO4)n2)cc1", "values": [{"measurement": "AC50", "setting": "[18]", "result": "15.8 µM (active)"}]}
{"smiles": "O=C(c1ccco1)N1CCN(c2c3c(nc4cc(-c5cccc(F)c5)nn24)CCCC3)CC1", "values": [{"measurement": "EC50", "setting": "[19]", "result": "1.79 µM (active)"}, {"measurement": "EC50", "setting": "[20]", "result": "4.41 µM (active)"}]}
{"smiles": "CNCc1ccc(-c2[nH]c3cc(F)cc4c3c2CCNC4=O)cc1", "note": "[RUCAPARIB]", "values": [{"measurement": "Ki", "setting": "[21]", "result": "> 7.94 µM (inactive)"}]}
